Active and inactive are the calls of the source. The rule behind the calls is not given here. *1 amine or outer side, *2 acyl side, *3 side chain or, on linkers, in order; H or OH if unused. Where a SMILES comes first, the peptide text is derived from it. [ ]: non-standard residue; d: D form. The star is where a group is joined. Dolaproine = CO[C@@H]([C@@H]1CCCN1)[C@@H](C)C(=O)O; X1 = O=C(CCCCC(=O)*)N1Cc2ccccc2C#Cc2ccccc21; Dil = CC[C@H](C)[C@H](NC)[C@@H](CC(=O)O)OC; PABC = O=C(OCc1ccc(N[*:1])cc1)[*:2]; X2 = C[C@@H](N*)[C@@H](O)c1ccccc1; NMeV = CN[C@H](C(=O)O)C(C)C
Tests used:
Integrin alpha-V/beta-3 [1] = biological target: T1, Integrin alpha-V/beta-3 (Homo sapiens, UniProt P05106+P06756); test: Binding affinity to alphaVbeta3 integrin in human SKOV3 cells assessed as inhibition of cell adhesion to fibrinogen measured after 2 hrs by MTT assay; type: cell-based
Target sequence in this assay (P05106 27-788 limits assumed): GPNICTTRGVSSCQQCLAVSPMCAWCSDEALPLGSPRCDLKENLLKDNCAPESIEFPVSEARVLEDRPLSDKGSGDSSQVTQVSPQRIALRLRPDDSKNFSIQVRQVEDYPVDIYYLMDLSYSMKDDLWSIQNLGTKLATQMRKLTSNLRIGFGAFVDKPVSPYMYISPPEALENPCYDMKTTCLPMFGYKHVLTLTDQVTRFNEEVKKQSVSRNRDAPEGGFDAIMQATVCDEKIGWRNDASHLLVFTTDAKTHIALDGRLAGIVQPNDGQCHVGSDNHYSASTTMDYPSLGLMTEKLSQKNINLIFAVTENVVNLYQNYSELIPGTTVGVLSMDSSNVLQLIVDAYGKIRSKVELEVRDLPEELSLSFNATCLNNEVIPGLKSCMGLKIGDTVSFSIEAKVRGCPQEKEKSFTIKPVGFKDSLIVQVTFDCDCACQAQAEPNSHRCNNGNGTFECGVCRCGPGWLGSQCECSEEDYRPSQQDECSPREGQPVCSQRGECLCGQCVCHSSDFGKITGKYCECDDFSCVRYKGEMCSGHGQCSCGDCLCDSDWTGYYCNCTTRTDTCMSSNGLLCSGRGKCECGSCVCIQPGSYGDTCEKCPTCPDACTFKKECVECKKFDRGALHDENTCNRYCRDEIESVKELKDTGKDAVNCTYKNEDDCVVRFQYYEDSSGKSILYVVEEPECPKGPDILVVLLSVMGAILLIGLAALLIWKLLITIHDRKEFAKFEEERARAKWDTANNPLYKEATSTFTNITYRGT
Target sequence in this assay (P06756 31-889 limits assumed): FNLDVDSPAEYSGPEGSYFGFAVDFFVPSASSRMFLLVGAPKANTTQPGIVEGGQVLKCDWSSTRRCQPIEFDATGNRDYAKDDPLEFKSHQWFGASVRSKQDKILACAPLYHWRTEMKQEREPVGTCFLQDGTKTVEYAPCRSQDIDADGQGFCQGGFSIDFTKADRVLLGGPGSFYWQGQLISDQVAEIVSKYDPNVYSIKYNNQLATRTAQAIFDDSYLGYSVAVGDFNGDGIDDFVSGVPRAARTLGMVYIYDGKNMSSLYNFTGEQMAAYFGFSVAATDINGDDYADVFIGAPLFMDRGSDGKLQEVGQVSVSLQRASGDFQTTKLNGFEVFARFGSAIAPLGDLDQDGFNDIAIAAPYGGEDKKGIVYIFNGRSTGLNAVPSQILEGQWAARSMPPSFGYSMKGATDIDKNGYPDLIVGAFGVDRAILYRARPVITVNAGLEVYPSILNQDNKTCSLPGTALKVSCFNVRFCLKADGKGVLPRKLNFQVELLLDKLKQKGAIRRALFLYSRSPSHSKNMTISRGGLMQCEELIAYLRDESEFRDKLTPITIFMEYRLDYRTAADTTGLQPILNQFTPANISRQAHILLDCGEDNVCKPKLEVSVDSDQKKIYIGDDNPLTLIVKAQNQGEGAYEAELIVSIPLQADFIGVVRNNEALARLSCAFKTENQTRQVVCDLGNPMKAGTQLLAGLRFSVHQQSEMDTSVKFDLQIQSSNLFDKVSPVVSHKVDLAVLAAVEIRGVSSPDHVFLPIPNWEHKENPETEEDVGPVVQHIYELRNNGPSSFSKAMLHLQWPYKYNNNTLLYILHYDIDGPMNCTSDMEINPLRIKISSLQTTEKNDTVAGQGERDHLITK
Target sequence in this assay (P06756 891-1048 limits assumed): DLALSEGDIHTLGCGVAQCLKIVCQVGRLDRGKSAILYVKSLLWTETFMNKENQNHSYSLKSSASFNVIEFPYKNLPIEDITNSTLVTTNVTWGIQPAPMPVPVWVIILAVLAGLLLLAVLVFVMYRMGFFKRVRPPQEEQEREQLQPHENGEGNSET

SK-OV-3 [2] = test: Cytotoxicity against human SKOV3 cells assessed as inhibition of cell growth after 72 hrs by CCK8 assay; type: functional, cell-based; conditions: SK-OV-3, 72 h
MCF7 [3] = test: Cytotoxicity against human MCF7 cells assessed as inhibition of cell growth after 72 hrs by CCK8 assay; type: functional, cell-based; conditions: MCF7, 72 h
SK-OV-3 [4] = test: Cytotoxicity against human SKOV3 cells assessed as inhibition of cell growth at 400 uM after 72 hrs by CCK8 assay; type: functional; conditions: SK-OV-3, 72 h, read-out: GI
SK-OV-3 [5] = test: Cytotoxicity against human SKOV3 cells assessed as inhibition of cell growth at 40 uM after 72 hrs by CCK8 assay; type: functional; conditions: SK-OV-3, 72 h, read-out: GI
SK-OV-3 [6] = test: Cytotoxicity against human SKOV3 cells assessed as inhibition of cell growth at 4 uM after 72 hrs by CCK8 assay; type: functional; conditions: SK-OV-3, 72 h, read-out: GI
SK-OV-3 [7] = test: Cytotoxicity against human SKOV3 cells assessed as inhibition of cell growth at 0.4 uM after 72 hrs by CCK8 assay; type: functional; conditions: SK-OV-3, 72 h, read-out: GI
SK-OV-3 [8] = test: Cytotoxicity against human SKOV3 cells assessed as inhibition of cell growth at 0.04 uM after 72 hrs by CCK8 assay; type: functional; conditions: SK-OV-3, 72 h, read-out: GI
SK-OV-3 [9] = test: Cytotoxicity against human SKOV3 cells assessed as inhibition of cell growth at 0.004 uM after 72 hrs by CCK8 assay; type: functional; conditions: SK-OV-3, 72 h, read-out: GI
SK-OV-3 [10] = test: Cytotoxicity against human SKOV3 cells assessed as inhibition of cell growth at 0.0004 uM after 72 hrs by CCK8 assay; type: functional; conditions: SK-OV-3, 72 h, read-out: GI
MCF7 [11] = test: Cytotoxicity against human MCF7 cells assessed as inhibition of cell growth at 400 uM after 72 hrs by CCK8 assay; type: functional; conditions: MCF7, 72 h, read-out: GI
MCF7 [12] = test: Cytotoxicity against human MCF7 cells assessed as inhibition of cell growth at 40 uM after 72 hrs by CCK8 assay; type: functional; conditions: MCF7, 72 h, read-out: GI
MCF7 [13] = test: Cytotoxicity against human MCF7 cells assessed as inhibition of cell growth at 4 uM after 72 hrs by CCK8 assay; type: functional; conditions: MCF7, 72 h, read-out: GI
MCF7 [14] = test: Cytotoxicity against human MCF7 cells assessed as inhibition of cell growth at 0.4 uM after 72 hrs by CCK8 assay; type: functional; conditions: MCF7, 72 h, read-out: GI
MCF7 [15] = test: Cytotoxicity against human MCF7 cells assessed as inhibition of cell growth at 0.04 uM after 72 hrs by CCK8 assay; type: functional; conditions: MCF7, 72 h, read-out: GI
MCF7 [16] = test: Cytotoxicity against human MCF7 cells assessed as inhibition of cell growth at 0.004 uM after 72 hrs by CCK8 assay; type: functional; conditions: MCF7, 72 h, read-out: GI
MCF7 [17] = test: Cytotoxicity against human MCF7 cells assessed as inhibition of cell growth at 0.0004 uM after 72 hrs by CCK8 assay; type: functional; conditions: MCF7, 72 h, read-out: GI
Integrin alpha-V/beta-3 [18] = biological target: T1, Integrin alpha-V/beta-3; test: Binding affinity to alphaVbeta3 integrin in human SKOV3 cells at 200 uM incubated for 3 hrs followed by compound washout prior to DBCO-Cy5 addition and measured after 1 hr by DAPI staining based fluorescence microscopic analysis; type: cell-based

[N-]=[N+]=NCCCC(=O)N[C@@H](CCCNC(=N)N)C(=O)NCC(=O)N[C@@H](CC(=O)N[C@H]1CSSC[C@@H](C(=O)O)NC(=O)[C@H](CC(=O)O)NC(=O)CNC(=O)[C@H](CCCNC(=N)N)NC(=O)[C@H](CC(=O)O)NC(=O)CNC(=O)[C@H](CCCNC(=N)N)NC1=O)C(=O)N[C@@H](CCCNC(=N)N)C(=O)NCC(=O)N[C@@H](CC(=O)O)C(=O)N[C@@H](CCCNC(=N)N)C(=O)NCC(=O)N[C@@H](CC(=O)O)C(=O)NCCCC[C@@H]1NC(=O)[C@H](Cc2ccccc2)NC(=O)[C@H](CC(=O)O)NC(=O)CNC(=O)[C@H](CCCN=C(N)N)NC1=O
IC50 (Integrin alpha-V/beta-3 [1]): 24.5 µM

[N-]=[N+]=NCCCC(=O)NCCCC[C@@H]1NC(=O)[C@H](Cc2ccccc2)NC(=O)[C@H](CC(=O)O)NC(=O)CNC(=O)[C@H](CCCN=C(N)N)NC1=O
IC50 (Integrin alpha-V/beta-3 [1]): 110 µM

CC[C@H](C)[C@@H]([C@@H](CC(=O)N1CCC[C@H]1[C@H](OC)[C@@H](C)C(=O)N[C@H](C)[C@@H](O)c1ccccc1)OC)N(C)C(=O)[C@@H](NC(=O)[C@H](C(C)C)N(C)C(=O)OCc1ccc(NC(=O)[C@H](CCCNC(=N)N)NC(=O)[C@@H](NC(=O)CCCCC(=O)N2Cc3ccccc3-c3nnn(CCCC(=O)NCCCC[C@@H]4NC(=O)[C@H](Cc5ccccc5)NC(=O)[C@H](CC(=O)O)NC(=O)CNC(=O)[C@H](CCCN=C(N)N)NC4=O)c3-c3ccccc32)C(C)C)cc1)C(C)C
IC50 (SK-OV-3 [2]): 4.5 µM
IC50 (MCF7 [3]): 93.2 µM

[N-]=[N+]=NCCCC(=O)N[C@@H](CCCNC(=N)N)C(=O)NCC(=O)N[C@@H](CC(=O)O)C(=O)N[C@@H](CCCNC(=N)N)C(=O)NCC(=O)N[C@@H](CC(=O)O)C(=O)NCCCC[C@@H]1NC(=O)[C@H](Cc2ccccc2)NC(=O)[C@H](CC(=O)O)NC(=O)CNC(=O)[C@H](CCCN=C(N)N)NC1=O
IC50 (Integrin alpha-V/beta-3 [1]): 25.1 µM

[N-]=[N+]=NCCCC(=O)N[C@@H](CCCNC(=N)N)C(=O)NCC(=O)N[C@@H](CC(=O)N[C@H]1CSSC[C@@H](C(=O)O)NC(=O)[C@H](CC(=O)O)NC(=O)CNC(=O)[C@H](CCCNC(=N)N)NC(=O)[C@H](CC(=O)O)NC(=O)CNC(=O)[C@H](CCCNC(=N)N)NC1=O)C(=O)N[C@@H](CCCNC(=N)N)C(=O)NCC(=O)N[C@@H](CC(=O)O)C(=O)NCCCC[C@@H]1NC(=O)[C@H](Cc2ccccc2)NC(=O)[C@H](CC(=O)O)NC(=O)CNC(=O)[C@H](CCCN=C(N)N)NC1=O
IC50 (Integrin alpha-V/beta-3 [1]): 2.13 µM
inhibition of growth at 400 µM (SK-OV-3 [4]): 28.8%
inhibition of growth at 40 µM (SK-OV-3 [5]): 28.1%
inhibition of growth at 4 µM (SK-OV-3 [6]): 23.9%
inhibition of growth at 0.4 µM (SK-OV-3 [7]): 15.4%
inhibition of growth at 0.04 µM (SK-OV-3 [8]): 14.4%
inhibition of growth at 0.004 µM (SK-OV-3 [9]): 19.5%
inhibition of growth at 0.0004 µM (SK-OV-3 [10]): 13.1%
inhibition of growth at 400 µM (MCF7 [11]): 30.2%
inhibition of growth at 40 µM (MCF7 [12]): 23.8%
inhibition of growth at 4 µM (MCF7 [13]): 22.6%
inhibition of growth at 0.4 µM (MCF7 [14]): 17.6%
inhibition of growth at 0.04 µM (MCF7 [15]): 17.5%
inhibition of growth at 0.004 µM (MCF7 [16]): 13.4%
inhibition of growth at 0.0004 µM (MCF7 [17]): 18.3%

[N-]=[N+]=NCCCC(=O)N[C@@H](CCCNC(=N)N)C(=O)NCC(=O)N[C@@H](CC(=O)O)C(=O)N[C@@H](CCCNC(=N)N)C(=O)NCC(=O)N[C@@H](CC(=O)NCCCC[C@@H]1NC(=O)[C@H](Cc2ccccc2)NC(=O)[C@H](CC(=O)O)NC(=O)CNC(=O)[C@H](CCCN=C(N)N)NC1=O)C(=O)NCCCC[C@@H]1NC(=O)[C@H](Cc2ccccc2)NC(=O)[C@H](CC(=O)O)NC(=O)CNC(=O)[C@H](CCCN=C(N)N)NC1=O
IC50 (Integrin alpha-V/beta-3 [1]): 8.9 µM

[N-]=[N+]=NCCCC(=O)N[C@@H](CCCNC(=N)N)C(=O)NCC(=O)N[C@@H](CC(=O)O)C(=O)N[C@@H](CCCNC(=N)N)C(=O)NCC(=O)N[C@@H](CC(=O)N[C@H]1CSSC[C@@H](C(=O)O)NC(=O)[C@H](CC(=O)O)NC(=O)CNC(=O)[C@H](CCCNC(=N)N)NC(=O)[C@H](CC(=O)O)NC(=O)CNC(=O)[C@H](CCCNC(=N)N)NC1=O)C(=O)NCCCC[C@@H]1NC(=O)[C@H](Cc2ccccc2)NC(=O)[C@H](CC(=O)O)NC(=O)CNC(=O)[C@H](CCCN=C(N)N)NC1=O
IC50 (Integrin alpha-V/beta-3 [1]): 4.2 µM
Activity (Integrin alpha-V/beta-3 [18]): Active

CC[C@H](C)[C@@H]([C@@H](CC(=O)N1CCC[C@H]1[C@H](OC)[C@@H](C)C(=O)N[C@H](C)[C@@H](O)c1ccccc1)OC)N(C)C(=O)[C@@H](NC(=O)[C@H](C(C)C)N(C)C(=O)OCc1ccc(NC(=O)[C@H](CCCNC(=N)N)NC(=O)[C@@H](NC(=O)CCCCC(=O)N2Cc3ccccc3-c3nnn(CCCC(=O)N[C@@H](CCCNC(=N)N)C(=O)NCC(=O)N[C@@H](CC(=O)O)C(=O)N[C@@H](CCCNC(=N)N)C(=O)NCC(=O)N[C@@H](CC(=O)N[C@H]4CSSC[C@@H](C(=O)O)NC(=O)[C@H](CC(=O)O)NC(=O)CNC(=O)[C@H](CCCNC(=N)N)NC(=O)[C@H](CC(=O)O)NC(=O)CNC(=O)[C@H](CCCNC(=N)N)NC4=O)C(=O)NCCCC[C@@H]4NC(=O)[C@H](Cc5ccccc5)NC(=O)[C@H](CC(=O)O)NC(=O)CNC(=O)[C@H](CCCN=C(N)N)NC4=O)c3-c3ccccc32)C(C)C)cc1)C(C)C
IC50 (SK-OV-3 [2]): 0.44 µM
IC50 (MCF7 [3]): 19.9 µM

CC[C@H](C)[C@@H]([C@@H](CC(=O)N1CCC[C@H]1[C@H](OC)[C@@H](C)C(=O)N[C@H](C)[C@@H](O)c1ccccc1)OC)N(C)C(=O)[C@@H](NC(=O)[C@H](C(C)C)N(C)C(=O)OCc1ccc(NC(=O)[C@H](CCCNC(=N)N)NC(=O)[C@@H](NC(=O)CCCCC(=O)N2Cc3ccccc3C#Cc3ccccc32)C(C)C)cc1)C(C)C (X1-VR[PABC][NMeV]V[Dil][Dolaproine]-X2)
IC50 (SK-OV-3 [2]): 1 µM
IC50 (MCF7 [3]): 22.3 µM

Source: ChEMBL document CHEMBL4422678, “Design and synthesis of novel dual-cyclic RGD peptides for αvβ3 integrin targeting” (Bioorg Med Chem Lett, 2019)
